# Columns and labels:
# histamine H1-receptor [1] = target: T1, histamine H1-receptor (Cavia porcellus, UniProt P31389); assay: guinea pig ileum test (in vitro histamine H1-antagonist activity); conditions: isolated guinea pig ileum, histamine-induced contraction, 8 min contact, 30° C.; read-out: pA2 value (converted)
# T1 construct: an isolated portion of the guinea pig ileum is secured under tension; from tissue; host or cells: isolated guinea pig ileum
# Experimental: In this test an isolated portion of the guinea pig ileum is secured under tension (500 mg) between an anchorage and a transducer in a 10 ml tissue bath and immersed in magnesium free Tyrode solution with constant aeration at a temperature of 30° C. The output from the transducer is amplified. The amplified output is in turn fed to a flat bed recorder. Measured amounts of histamine are added to the tissue bath so that the histamine concentration increases step-wise until the force of the contraction reaches a maximum. The tissue bath is washed out and filled with fresh magnesium free Tyrode solution containing compound under test. The solution is left in contact with the tissue for 8 min. and measured amounts of histamine are added again until a maximum contraction is recorded. The assay is repeated with increasing concentrations of test compound and the dose of histamine giving 50% of maximum contraction is noted. A dose ratio (DR) was calculated by comparing the concentrations of histamine required to produce 50% maximum response in the absence and in the presence of the antagonist. A plot of Log DR-1 against Log D (the concentration of compound under test) is made and the point of intersection with the Log (DR-1) ordinate is taken as the measure of the activity (pA2 value).
# histamine H2-receptor = target: T2, histamine H2-receptor (Cavia porcellus, UniProt P47747); assay: guinea pig atrium test (in vitro histamine H2-antagonist activity); conditions: isolated guinea pig right atrium, histamine-induced rate of beating, 60 min contact, 37° C.; read-out: pA2 value (converted)
# T2 construct: a spontaneously beating isolated portion of the guinea pig right atrium is secured under tension; from tissue; host or cells: isolated guinea pig right atrium
# T2 sequence (P47747 whole entry): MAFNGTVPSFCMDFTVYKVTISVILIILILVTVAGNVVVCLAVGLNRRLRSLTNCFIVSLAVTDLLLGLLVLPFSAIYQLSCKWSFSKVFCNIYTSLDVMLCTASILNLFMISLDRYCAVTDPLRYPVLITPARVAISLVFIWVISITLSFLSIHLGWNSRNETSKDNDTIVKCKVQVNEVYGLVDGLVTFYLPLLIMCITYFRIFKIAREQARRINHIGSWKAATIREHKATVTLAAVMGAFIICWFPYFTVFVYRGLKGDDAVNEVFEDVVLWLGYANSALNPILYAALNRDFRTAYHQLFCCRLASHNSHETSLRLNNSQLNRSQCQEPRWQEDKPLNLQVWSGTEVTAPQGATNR
# Experimental: In this test a spontaneously beating isolated portion of the guinea pig right atrium is secured under tension (300 mg) between an anchorage and a transducer in a 15 ml tissue bath and immersed in McEwens solution with constant aeration at a temperature of 37° C. The output from the transducer is amplified. Output is in turn fed to a flat bed recorder. Measured amounts of histamine are added to the tissue bath so that the histamine concentration increases step-wise until the rate of beating reaches a maximum. The tissue bath is washed out and filled with fresh McEwens solution containing compound under test. The solution is left in contact with the tissue for 60 min. and measured amounts of histamine are added again until a maximum rate is recorded. The assay is repeated with increasing concentrations of test compound and the dose of histamine giving 50% of maximum rate is noted. A dose ratio (DR) was calculated by comparing the concentrations of histamine required to produce 50% maximum response in the absence and in the presence of the antagonist. A plot of Log DR-1 against Log D (the concentration of compound under test) is made and the point of intersection with the Log (DR-1) ordinate is taken as the measure of the activity (pA2 value).
# histamine H1-receptor [2] = target: T1, histamine H1-receptor; assay: inhibition of histamine induced bronchoconstriction in anaesthetised guinea pigs; format: in vivo; conditions: i.v., anaesthetised guinea pig, histamine curve 5 minutes after antagonist
# Experimental: Guinea pigs of either sex are anesthetised by intraperitoneal injection of sodium pentobarbitone, 90 mg/kg. The trachea is cannulated. The animal is respired artificially with a fixed volume of air just adequate to inflate the lungs. The pressure needed to inflate the lungs is monitored from the respiratory system using a low pressure transducer. Intranvenous injection of histamine causes dose-dependent increases in the pressure to inflate the lungs reflecting the bronchoconstrictor action of histamine. Responses to histamine can be antagonised using histamine H1 -receptor antagonists.
# Dose-response curves to histamine are established at 20, 40, 80, 160 and 320 nmols/kg. Antagonists are then administered by intravenous injection and 5 minutes later a new histamine dose-response curve is established increasing the doses of histamine as necessary. The effect of the antagonist can be quantified by the displacement, to the right, of the histamine dose-response curve, expressed as a dose-ratio. A series of doses of antagonists may be given to each animal allowing calculation of dose-ratios for each dose of antagonist. The compounds of Examples 1 and 2 hereafter cause displacement of histamine dose-response curves with a dose-ratio of 10 at doses of less than 0.8 micromole kg^-1 i.v.
# histamine H1-receptor [3] = assay: inhibition of H1-agonist induced reduction of blood pressure in the anaesthetised cat; format: in vivo; conditions: intravenous (femoral veins), 2-(2-aminoethyl)pyridine-induced reduction in blood pressure
# Experimental: Cats of either sex weighing between 2 and 3 kg were starved overnight and anaesthetised with sodium pentabarbitone (60 mg/kg i.p.). The trachea was cannulated and blood pressure was measured in a femoral artery. The compound under investigation was administered by cannulae in the right and left femoral veins. Anaesthetic was administered as required into one brachial vein. Dose-response curves were constructed by administering a standard H1 -agonist, 2-(2-aminoethyl)pyridine in increasing dose from 10^-8 mol/kg to 10^-5 mol/kg. The 2-(2-aminoethyl)pyridine-induced reduction in blood pressure was measured. The effect of the antagonists can be quantified by displacement of the 2-(2-aminoethyl)pyridine dose-response curve expressed as a dose-ratio. The compounds of Examples 1 and 2 caused displacement of the dose-responsecurves with a dose-ratio of 10 at doses of 0.06 and 0.0058 micromole/kg respectively.
# T1 sequence (P31389 whole entry): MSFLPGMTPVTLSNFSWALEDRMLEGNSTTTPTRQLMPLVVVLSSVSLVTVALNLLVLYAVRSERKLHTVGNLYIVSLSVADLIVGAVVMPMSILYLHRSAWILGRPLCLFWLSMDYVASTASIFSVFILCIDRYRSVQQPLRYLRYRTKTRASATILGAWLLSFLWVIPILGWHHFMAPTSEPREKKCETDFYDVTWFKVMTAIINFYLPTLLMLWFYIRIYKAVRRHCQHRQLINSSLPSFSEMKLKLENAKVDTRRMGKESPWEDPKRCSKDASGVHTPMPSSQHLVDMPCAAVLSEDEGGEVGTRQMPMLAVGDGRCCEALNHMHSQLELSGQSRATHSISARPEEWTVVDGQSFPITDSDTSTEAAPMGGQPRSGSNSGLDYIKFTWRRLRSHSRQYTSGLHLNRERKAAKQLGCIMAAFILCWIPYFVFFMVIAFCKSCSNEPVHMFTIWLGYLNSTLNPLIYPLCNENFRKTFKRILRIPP
Kb (histamine H1-receptor [1]) [nM],Kb (histamine H2-receptor) [nM],dose causing displacement of histamine dose-response curves with a dose-ratio of 10 (histamine H1-receptor [2]),Structure (SMILES),dose causing displacement of the 2-(2-aminoethyl)pyridine dose-response curve with a dose-ratio of 10 (histamine H1-receptor [3]) [µmol/kg]
< 10,> 1000,less than 0.8 micromole kg^-1,"Cc1ccc(Cc2cnc(NCCCCc3ncc(Br)cc3N)[nH]c2=O)cn1 [Example 1, 2-[4-(5-bromo-3-aminopyrid-2-yl)butylamino]-5-(6-methylpyrid-3-ylmethyl) 4-pyrimidone]",0.06
< 10,> 1000,less than 0.8 micromole kg^-1,"Nc1cc(Br)cnc1CCCCNc1ncc(Cc2cc[n+]([O-])cc2)c(=O)[nH]1 [Example 2, 2-[4-(5-bromo-3-aminopyrid-2yl)butylamino]-5-(N-oxopyrid-4-ylmethyl)-4-pyrimidone]",0.0058
,,,"Cc1ccc(Cc2cnc(NCCCCc3ncc(Br)cc3C)[nH]c2=O)cn1 [2-[4-(5-bromo-3-methylpyrid-2-yl)butylamino]-5-(6-methylpyrid-3-ylmethyl)-4-pyrimidone, reference compound]",0.215

# — patent publication US4665078A, “2-(3-amino-5-halo-2-pyridylalkylamino)-pyrimidones useful as histamine H1-antagonists” (Smith Kline & French Laboratories Limited, priority 1983, dated 1987)
